Calls of active or inactive are those of the source.
Key:
Tumor necrosis factor = Tumor necrosis factor (Homo sapiens, UniProt P01375); experiment: analog potency on TNFa NF-kB signaling – cell-based, revised, SAR follow-up (AID 2337); format: functional
[1] = target: Nucleotide-binding oligomerization domain-containing protein 2 (Homo sapiens, UniProt Q9HC29); experiment: PubChem AID 2334; format: functional
[2] = target: T1, Nucleotide-binding oligomerization domain-containing protein 1 (Homo sapiens, UniProt Q9Y239); experiment: blockers of NOD1 pathway activity – revised, SAR follow-up (AID 2333); format: functional
T1 sequence (Q9Y239 whole entry): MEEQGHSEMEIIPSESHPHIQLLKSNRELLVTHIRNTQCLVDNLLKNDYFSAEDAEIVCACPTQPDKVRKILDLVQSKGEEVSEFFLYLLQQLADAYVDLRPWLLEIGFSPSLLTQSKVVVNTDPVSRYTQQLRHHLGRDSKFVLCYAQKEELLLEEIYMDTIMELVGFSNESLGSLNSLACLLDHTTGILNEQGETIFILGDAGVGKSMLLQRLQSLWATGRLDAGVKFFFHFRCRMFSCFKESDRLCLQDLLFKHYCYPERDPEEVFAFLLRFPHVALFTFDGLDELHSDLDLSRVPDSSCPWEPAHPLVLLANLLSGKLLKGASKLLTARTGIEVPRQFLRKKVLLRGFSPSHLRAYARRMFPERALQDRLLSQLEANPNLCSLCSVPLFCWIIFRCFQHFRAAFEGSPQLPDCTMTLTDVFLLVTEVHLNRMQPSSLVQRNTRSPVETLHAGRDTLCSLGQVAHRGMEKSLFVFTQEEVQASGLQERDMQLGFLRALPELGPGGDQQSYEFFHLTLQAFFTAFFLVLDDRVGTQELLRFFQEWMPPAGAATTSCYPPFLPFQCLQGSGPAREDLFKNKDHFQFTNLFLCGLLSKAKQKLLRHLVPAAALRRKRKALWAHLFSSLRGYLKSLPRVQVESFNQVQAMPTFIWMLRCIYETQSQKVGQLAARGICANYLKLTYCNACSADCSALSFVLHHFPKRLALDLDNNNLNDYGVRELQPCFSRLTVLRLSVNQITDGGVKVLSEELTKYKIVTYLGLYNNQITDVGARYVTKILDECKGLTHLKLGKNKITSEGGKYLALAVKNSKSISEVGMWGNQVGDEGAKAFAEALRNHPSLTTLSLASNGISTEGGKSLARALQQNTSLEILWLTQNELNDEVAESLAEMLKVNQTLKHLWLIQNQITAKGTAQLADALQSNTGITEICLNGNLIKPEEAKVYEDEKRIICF

HEK293 = experiment: cells; details: Homo sapiens
Cytochrome P450 2C9 = Cytochrome P450 2C9 (Homo sapiens, UniProt P11712)
[3] = target: T2, DNA repair and recombination protein RAD54-like (Homo sapiens, UniProt Q92698); experiment: RAD54 Holliday junction migration blockers – biochemical, fluorescence, cherry-picked samples, dose series, confirmation (AID 651657); format: functional
T2 sequence (Q92698 whole entry): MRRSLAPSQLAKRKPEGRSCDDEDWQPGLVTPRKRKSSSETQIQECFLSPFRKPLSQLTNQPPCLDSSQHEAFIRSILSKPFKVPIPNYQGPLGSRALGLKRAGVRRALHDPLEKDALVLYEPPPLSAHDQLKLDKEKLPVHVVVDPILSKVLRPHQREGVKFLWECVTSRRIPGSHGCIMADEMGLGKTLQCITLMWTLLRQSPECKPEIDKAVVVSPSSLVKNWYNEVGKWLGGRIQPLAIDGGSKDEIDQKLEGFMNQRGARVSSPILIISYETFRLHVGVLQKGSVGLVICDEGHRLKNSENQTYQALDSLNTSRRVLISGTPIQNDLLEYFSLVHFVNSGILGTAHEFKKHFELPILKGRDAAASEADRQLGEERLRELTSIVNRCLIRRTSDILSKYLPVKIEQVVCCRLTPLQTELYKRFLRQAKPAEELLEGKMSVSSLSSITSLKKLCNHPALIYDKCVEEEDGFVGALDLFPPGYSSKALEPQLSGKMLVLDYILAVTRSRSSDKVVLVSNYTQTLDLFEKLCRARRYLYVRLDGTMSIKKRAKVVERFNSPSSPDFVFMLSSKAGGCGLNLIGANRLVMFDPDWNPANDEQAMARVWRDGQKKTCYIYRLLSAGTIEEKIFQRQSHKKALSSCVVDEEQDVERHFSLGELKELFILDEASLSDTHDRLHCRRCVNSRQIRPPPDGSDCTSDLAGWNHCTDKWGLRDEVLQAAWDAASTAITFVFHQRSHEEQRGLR

Cytochrome P450 2D6 = Cytochrome P450 2D6 (Homo sapiens, UniProt P10635);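 also: CYP2D6 member of a cytochrome P450 panel assay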
Cytochrome P450 2C19 = Cytochrome P450 2C19 (Homo sapiens, UniProt P33261); experiment: Cytochrome panel assay with activity outcomes. Panel member name: p450-cyp2c19 Compounds with AC50 equal or less than 10 uM are considered active; format: functional; details: read-out: AC50
Cytochrome P450 3A4 = Cytochrome P450 3A4 (Homo sapiens, UniProt P08684);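 also: CYP3A4 tested as one member of a cytochrome P450 panel screen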
Escherichia coli = experiment: microbe, parasite or virus in culture
Mu-type opioid receptor = Mu-type opioid receptor (Homo sapiens, UniProt P35372); experiment: (§1) Counterscreen for agonists of heterodimerization of the mu 1 (OPRM1) and delta 1 (OPRD1) opioid receptors: Luminescence-based cell-based high throughput dose response assay to identify agonists of OPRM1 homodimerization.; format: functional
[4] = target: 5-hydroxytryptamine receptor 5A (Homo sapiens, UniProt P47898); experiment: Counterscreen for agonists of OPRM1-OPRD1 heterodimerization: luminescence-based cell-based high throughput dose response assay to identify agonists of 5-hydroxytryptamine (serotonin) 5A receptor (HTR5A). [Related pubchem assays (depositor defined):AID504326, AID504355, AID504692, AID504904, AID504905]; format: functional
[5] = target: T3, Carboxy-terminal domain RNA polymerase II polypeptide A small phosphatase 1 (Homo sapiens, UniProt Q9GZU7); experiment: CTDSP1 inhibitors, concentration-response, biochemical, absorbance readout, ultra-high-throughput screen actives (AID 540297); format: functional
T3 sequence (Q9GZU7 whole entry): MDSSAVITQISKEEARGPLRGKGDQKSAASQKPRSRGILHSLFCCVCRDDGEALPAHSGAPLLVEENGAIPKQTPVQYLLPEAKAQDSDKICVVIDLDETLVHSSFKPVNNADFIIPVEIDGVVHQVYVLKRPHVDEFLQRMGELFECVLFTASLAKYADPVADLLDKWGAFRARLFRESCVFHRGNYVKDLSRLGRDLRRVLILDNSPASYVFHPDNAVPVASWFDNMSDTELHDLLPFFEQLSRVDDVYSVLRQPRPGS

[6] = target: Delta-type opioid receptor (Homo sapiens, UniProt P41143); experiment: as §1, with “of OPRD1” for “of OPRM1”, “homodimerization. [Related pubchem assays (depositor defined):AID504326, AID504355, AID504692, AID504904, AID504905]” for “homodimerization.”; format: functional
H4 = experiment: Luminescence Cell-Based Dose Response HTS to Identify Activators of 5'UTR Stem-Loop Driven Prion Protein mRNA Translation in H4 Neuroglioblastoma Cells. [Related pubchem assays: 1829 (Project Summary), 1814 (Primary HTS)]; format: functional; details: Homo sapiens
[7] = Luminescence Cell-Based Dose Confirmation HTS to Identify Activators of 5'UTR Stem-Loop Driven Alpha-Synuclein mRNA Translation in H4 Neuroglioblastoma Cells. [Related pubchem assays: 1829 (Project Summary), 1814 (Primary HTS)]; format: functional
[8] = Luminescence Cell-Based Dose Response HTS to Identify Activators of Luciferase Translation or Activity in H4 […] Cells. [Related pubchem assays: 1829 (Project Summary), 1814 (Primary HTS)]; format: functional
HeLa = experiment: ATP-based viability loss in HeLa cells – cell-based, CellTiter-Glo luminescence, cherry-pick samples, cytotoxicity control for MITF activator project, dose response (AID 540259); format: functional; details: Homo sapiens
INS1 = experiment: INS-1E survival protection against cytokine death – cell-based, luminescence, retest, dose response (AID 449756); format: functional; details: Rattus norvegicus;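 also: cell death triggered by IL-1 beta plus TNF-alpha plus IFN-gamma mixture; protective hits raise ATP signal compared with cytokine alone wells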
Beta Lactamase = Beta Lactamase (Pseudomonas aeruginosa, UniProt Q932Y6); experiment: BLA reporter interference, concentration series – BLA reporter cells, FRET fluorescence, artefact control for TLR9-MyD88 binding inhibitor project, dose response (AID 588341); format: cell-based;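 also: cell based assay in CHO-K1 cells stably expressing beta-lactamase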
CHO = CHO cell viability loss, potency – luminescence, cytotoxicity control for TLR9-MyD88 binding inhibitor project, dose response (AID 588339); format: functional, cell-based, hamster; details: Cricetulus griseus;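 also: CHO cells stably coexpressing TLR9 and MyD88 fusions from primary screen; compound exposure lasted 48 hours before viability readout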
[9] = target: T4, Latent membrane protein 1 (Human herpesvirus 4 (strain B95-8), UniProt P03230); experiment: LMP1 TES1 pathway selectivity over dsRED control – imaging, HEK293T, dual-color eGFP/dsRED, cherry-picks, selectivity assay for LMP1 NF-kB inhibitor project, dose response (AID 588398); format: functional, cell-based
T4 sequence (P03230 whole entry): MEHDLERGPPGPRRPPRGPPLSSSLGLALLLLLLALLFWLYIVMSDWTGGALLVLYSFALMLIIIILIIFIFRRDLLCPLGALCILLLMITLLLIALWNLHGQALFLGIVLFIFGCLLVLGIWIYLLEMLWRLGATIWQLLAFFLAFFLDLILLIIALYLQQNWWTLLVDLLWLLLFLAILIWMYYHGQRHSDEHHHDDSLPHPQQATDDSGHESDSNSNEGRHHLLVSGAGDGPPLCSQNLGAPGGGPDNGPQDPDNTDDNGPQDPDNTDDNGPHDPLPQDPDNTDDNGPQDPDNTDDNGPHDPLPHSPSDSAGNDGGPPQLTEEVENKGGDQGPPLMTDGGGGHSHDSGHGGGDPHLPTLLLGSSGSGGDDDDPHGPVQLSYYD

Sequence of Cytochrome P450 2D6 (P10635 whole entry): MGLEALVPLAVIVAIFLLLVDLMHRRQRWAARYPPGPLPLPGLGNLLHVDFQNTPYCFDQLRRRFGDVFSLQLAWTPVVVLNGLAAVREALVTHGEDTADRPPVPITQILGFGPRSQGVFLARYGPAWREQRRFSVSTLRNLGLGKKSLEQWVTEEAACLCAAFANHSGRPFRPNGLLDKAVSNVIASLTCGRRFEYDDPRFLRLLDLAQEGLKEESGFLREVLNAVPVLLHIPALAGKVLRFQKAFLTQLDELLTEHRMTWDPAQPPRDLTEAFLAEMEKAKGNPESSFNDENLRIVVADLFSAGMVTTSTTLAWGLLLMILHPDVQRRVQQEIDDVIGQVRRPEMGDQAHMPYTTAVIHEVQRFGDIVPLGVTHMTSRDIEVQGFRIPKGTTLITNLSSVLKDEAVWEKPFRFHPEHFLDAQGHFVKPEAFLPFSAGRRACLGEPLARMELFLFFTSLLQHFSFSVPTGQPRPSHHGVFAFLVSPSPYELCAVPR
Sequence of Mu-type opioid receptor (P35372 whole entry): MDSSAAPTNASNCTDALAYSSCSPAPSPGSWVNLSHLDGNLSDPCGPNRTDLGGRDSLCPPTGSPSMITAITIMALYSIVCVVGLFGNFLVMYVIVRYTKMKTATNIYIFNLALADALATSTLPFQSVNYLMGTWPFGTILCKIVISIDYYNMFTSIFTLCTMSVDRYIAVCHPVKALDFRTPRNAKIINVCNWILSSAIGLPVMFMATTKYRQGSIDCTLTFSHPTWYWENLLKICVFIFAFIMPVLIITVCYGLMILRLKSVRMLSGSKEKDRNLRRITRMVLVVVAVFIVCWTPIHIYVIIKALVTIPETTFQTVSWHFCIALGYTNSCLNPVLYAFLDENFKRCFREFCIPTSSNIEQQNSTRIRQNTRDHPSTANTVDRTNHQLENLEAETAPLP
Sequence of Tumor necrosis factor (P01375 whole entry, the tested form may be a part): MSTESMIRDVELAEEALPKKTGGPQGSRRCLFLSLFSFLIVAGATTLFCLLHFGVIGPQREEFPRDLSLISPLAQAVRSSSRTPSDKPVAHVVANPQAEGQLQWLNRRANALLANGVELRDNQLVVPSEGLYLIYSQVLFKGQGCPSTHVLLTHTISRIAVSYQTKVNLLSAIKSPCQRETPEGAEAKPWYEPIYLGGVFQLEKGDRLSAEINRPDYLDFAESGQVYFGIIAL
Sequence of Cytochrome P450 2C19 (P33261 whole entry): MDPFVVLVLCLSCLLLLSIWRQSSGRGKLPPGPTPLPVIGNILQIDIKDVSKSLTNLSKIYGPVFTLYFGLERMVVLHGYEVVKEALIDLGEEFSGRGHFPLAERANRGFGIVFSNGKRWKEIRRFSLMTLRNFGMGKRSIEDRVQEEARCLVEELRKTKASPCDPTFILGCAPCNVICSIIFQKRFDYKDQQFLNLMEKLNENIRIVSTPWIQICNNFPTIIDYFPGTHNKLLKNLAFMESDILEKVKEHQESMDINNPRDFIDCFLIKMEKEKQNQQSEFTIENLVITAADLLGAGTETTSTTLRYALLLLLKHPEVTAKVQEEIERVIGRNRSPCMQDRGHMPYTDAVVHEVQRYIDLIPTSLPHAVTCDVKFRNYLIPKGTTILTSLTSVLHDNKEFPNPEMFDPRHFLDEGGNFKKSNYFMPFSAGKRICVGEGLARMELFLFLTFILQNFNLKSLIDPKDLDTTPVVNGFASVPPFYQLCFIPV
Sequence of Cytochrome P450 3A4 (P08684 whole entry): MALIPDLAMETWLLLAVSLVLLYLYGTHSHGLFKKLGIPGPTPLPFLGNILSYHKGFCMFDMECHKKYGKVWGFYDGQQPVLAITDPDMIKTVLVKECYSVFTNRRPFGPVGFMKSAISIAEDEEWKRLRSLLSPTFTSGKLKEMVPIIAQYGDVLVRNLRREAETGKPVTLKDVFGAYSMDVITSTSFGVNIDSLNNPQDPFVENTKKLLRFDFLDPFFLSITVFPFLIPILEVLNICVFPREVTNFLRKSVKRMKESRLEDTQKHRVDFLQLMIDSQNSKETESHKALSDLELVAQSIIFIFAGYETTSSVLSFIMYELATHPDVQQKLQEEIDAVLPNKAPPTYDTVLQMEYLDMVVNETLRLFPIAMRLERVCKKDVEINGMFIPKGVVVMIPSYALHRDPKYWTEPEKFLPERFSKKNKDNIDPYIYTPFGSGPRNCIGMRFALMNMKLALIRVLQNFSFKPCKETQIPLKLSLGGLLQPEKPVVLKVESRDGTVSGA
Sequence of Beta Lactamase (Q932Y6 whole entry, the tested form may be a part): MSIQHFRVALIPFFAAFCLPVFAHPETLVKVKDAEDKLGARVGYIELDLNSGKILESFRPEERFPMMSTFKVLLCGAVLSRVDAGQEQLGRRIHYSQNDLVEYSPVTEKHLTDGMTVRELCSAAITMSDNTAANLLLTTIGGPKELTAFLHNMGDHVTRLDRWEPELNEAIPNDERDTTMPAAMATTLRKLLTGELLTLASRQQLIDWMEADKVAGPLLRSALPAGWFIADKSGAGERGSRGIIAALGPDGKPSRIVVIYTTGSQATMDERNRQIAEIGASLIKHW
Sequence of Delta-type opioid receptor (P41143 whole entry): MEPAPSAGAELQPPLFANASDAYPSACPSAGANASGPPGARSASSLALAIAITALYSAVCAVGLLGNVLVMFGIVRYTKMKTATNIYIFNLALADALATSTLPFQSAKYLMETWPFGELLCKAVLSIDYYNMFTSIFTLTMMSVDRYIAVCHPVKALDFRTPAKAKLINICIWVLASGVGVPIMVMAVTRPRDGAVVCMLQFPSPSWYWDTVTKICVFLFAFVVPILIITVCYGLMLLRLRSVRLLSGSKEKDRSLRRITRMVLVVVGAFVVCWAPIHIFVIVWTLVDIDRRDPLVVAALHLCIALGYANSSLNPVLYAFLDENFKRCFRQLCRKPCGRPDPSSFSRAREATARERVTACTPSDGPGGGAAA
Sequence of 5-hydroxytryptamine receptor 5A (P47898 whole entry, the tested form may be a part): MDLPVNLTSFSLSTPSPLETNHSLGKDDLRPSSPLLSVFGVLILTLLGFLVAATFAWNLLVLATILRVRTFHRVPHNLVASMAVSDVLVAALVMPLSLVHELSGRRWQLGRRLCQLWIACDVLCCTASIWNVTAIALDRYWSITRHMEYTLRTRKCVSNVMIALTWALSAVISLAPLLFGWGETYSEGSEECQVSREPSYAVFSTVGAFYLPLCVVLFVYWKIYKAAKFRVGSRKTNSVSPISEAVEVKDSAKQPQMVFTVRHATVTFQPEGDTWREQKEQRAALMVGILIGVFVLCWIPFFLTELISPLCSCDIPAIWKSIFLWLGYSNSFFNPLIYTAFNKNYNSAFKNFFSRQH
Sequence of Cytochrome P450 2C9 (P11712 whole entry): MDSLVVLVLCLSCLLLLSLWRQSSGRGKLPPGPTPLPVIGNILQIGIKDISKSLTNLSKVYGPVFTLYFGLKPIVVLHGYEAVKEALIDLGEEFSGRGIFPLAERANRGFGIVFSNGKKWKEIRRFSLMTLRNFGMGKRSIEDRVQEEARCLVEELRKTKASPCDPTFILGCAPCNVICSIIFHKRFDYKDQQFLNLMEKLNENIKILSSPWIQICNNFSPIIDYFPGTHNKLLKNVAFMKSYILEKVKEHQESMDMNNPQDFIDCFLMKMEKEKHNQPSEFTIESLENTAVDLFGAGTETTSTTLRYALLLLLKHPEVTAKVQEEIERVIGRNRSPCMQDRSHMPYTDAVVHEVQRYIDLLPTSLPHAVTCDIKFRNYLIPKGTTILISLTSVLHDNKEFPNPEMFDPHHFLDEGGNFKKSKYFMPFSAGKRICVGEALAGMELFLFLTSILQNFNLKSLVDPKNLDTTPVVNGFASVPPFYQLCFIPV
Sequence of Nucleotide-binding oligomerization domain-containing protein 2 (Q9HC29 whole entry, the tested form may be a part): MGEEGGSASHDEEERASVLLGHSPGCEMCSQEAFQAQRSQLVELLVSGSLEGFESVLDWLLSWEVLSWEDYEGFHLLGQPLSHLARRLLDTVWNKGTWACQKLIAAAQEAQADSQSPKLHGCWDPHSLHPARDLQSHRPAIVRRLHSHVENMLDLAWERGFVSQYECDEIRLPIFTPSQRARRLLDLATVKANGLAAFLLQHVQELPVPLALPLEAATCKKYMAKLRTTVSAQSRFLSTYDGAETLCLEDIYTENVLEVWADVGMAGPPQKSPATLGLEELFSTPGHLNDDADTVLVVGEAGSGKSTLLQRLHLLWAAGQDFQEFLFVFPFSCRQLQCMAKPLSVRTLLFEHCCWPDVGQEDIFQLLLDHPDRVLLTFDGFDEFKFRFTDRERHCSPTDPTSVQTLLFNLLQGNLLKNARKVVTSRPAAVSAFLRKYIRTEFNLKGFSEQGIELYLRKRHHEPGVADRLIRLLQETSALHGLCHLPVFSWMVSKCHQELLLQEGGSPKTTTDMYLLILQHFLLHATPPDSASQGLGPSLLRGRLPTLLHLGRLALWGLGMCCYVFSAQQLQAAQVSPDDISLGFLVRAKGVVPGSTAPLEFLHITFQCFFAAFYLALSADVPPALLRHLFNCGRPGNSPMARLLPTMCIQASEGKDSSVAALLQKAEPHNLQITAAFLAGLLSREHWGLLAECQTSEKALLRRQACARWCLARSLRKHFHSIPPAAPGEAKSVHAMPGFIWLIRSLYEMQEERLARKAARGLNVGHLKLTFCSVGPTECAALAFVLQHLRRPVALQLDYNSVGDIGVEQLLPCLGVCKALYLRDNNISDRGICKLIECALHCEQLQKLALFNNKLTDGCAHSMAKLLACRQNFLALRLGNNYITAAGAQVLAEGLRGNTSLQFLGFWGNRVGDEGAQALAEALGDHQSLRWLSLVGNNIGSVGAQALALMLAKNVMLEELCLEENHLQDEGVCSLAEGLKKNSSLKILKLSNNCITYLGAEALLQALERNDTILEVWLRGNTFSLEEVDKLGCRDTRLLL

## CC(/C=C/c1ccccc1)=NNC(=O)c1cccc(Br)c1
Tumor necrosis factor
  IC50: > 20 µM (inactive)
[1]
  IC50: > 20 µM (inactive)
[2]
  IC50: > 20 µM (inactive)
HEK293
  IC50: > 20 µM (inactive)

## CCN1CCc2c(sc(NC(=O)c3ccc(S(=O)(=O)N4CCOCC4)cc3)c2C(=O)OC)C1.Cl
Cytochrome P450 2C9
  AC50: 5.01 µM (inconclusive)
[3]
  AC50: 12.8 µM (active)
Cytochrome P450 2D6
  AC50: inconclusive
Cytochrome P450 2C19
  AC50: 31.6 µM (inconclusive)
Cytochrome P450 3A4
  AC50: inconclusive

## O=C(COc1ccc2c3c(c(=O)oc2c1)CCCC3)NCc1ccncc1
Escherichia coli
  AC50: 38.2 µM (active)

## Cc1cc(Cl)ccc1OCC(=O)N[C@@H](Cc1ccccc1)c1nc2ccccc2[nH]1
Mu-type opioid receptor
  EC50: > 92.5 µM (inactive)
[4]
  EC50: > 92.5 µM (inactive)
[5]
  IC50: 21.5 µM (active)
[6]
  EC50: > 92.5 µM (inactive)

## Cc1ccc(-n2nnc(-c3ccnc4ccccc34)n2)cc1
H4
  EC50: 14.5 µM (active)
[7]
  EC50: 0.371 µM (active)
[8]
  EC50: 0.745 µM (active)
HeLa
  AC50: 45.4 µM (active)

## CC(C)(/N=N\C(C)(C)C(=N)N)C(=N)N.Cl
Cytochrome P450 2D6
  AC50: inconclusive

## CC(C)CNC(=O)COC(=O)c1c2c(nc3ccccc13)/C(=C/c1cccs1)CC2
INS1
  AC50: 43.8 µM (active)
Beta Lactamase
  IC50: 3.52 µM (active)
CHO
  IC50: > 49.7 µM (inactive)

## Cc1ccc(OCCn2cc(C(=S)N3CCCC3)c3ccccc32)cc1C
[9]
  AC50: 72.9 µM (active)

Source: ChEMBL document CHEMBL1201862, “PubChem BioAssay data set” (2004)
